Experimental data from patent US8877716B2, “Peptide derivatives, preparation and uses thereof” (Vect-Horus, priority 2010, dated 2014).

Assays:
[1] = in vitro; settings: blood
[2] = Demeule et al., 2008; cited from earlier work

Compound	half-life [1]	Kin (cerebral transfer coefficient) [2]
CSCC[C@@H]1NC(=O)[C@H](N)CSSC[C@@H](C(=O)O)NC(=O)CNC(=O)[C@H](CCCNC(=N)N)NC(=O)[C@H](CC(C)C)NC(=O)[C@H](CCCNC(=N)N)NC(=O)[C@@H]2CCCN2C1=O [SEQ ID NO: 17]	3 h	–
transferrin [Tf]	–	0.0003 mL/s/g
